The values that follow come from US12403144B2, “HECT E3 ligase inhibitors and uses thereof” (IFOM FONDAZIONE ISTITUTO FIRC DI ONCOLOGIA MOLECOLARE, priority 2019, dated 2025).

Structures can show the parent of a compound that is named as a salt.

One test deals with T1, HECT domain of NEDD4 (Homo sapiens, UniProt P46934).
T1 construct: crystal structure of the HECT domain of NEDD4 in complex with compound 12; made in house
T1 sequence (P46934 519-900 isoform P46934-4 limits assumed): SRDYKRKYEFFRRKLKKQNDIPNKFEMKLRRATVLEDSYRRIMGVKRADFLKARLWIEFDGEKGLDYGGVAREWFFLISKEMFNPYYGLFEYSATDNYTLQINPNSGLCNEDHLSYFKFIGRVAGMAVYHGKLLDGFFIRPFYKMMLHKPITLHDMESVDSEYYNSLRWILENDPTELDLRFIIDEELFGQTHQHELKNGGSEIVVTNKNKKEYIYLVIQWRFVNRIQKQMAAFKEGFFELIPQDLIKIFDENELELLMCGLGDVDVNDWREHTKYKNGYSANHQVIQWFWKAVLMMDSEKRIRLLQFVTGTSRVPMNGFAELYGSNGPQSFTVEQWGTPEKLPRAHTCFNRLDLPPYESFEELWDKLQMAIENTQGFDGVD
Briefly: X-Ray crystal structure of the HECT domain of NEDD4 in complex with compound. It is filed as binding. As to conditions: crystal soaking; thiol group of Cys627 attacks the α,β-unsaturated ester. The source says:
FIG. 2: Structure of NEDD4 HECT in complex with compound 12. a. Compound 12 (dark grey sticks representation) binding to the HECT of NEDD4 (light grey), with a Fo-Fc map, calculated omitting the ligand, contoured at 2.5α level (represented as a grey mesh). b. Details of ligand binding: compound 12 and covalently or hydrogen-bonded NEDD4 residues are in ball-and-stick representation, hydrogen bond is shown as dotted line; spoked arcs represent protein residues making nonbonded contacts with the ligand.
FIG. 3: Structure of apo NEDD4 HECT superimposed with the one of the complex HECT-compound 12. Changes in the HECT structure upon compound 12 binding. Apo-HECT (pdb entry 2xbf, version 1.2, 13 Jul. 2011) depicted as dark grey ribbon; complex depicted as light grey ribbon. Side chains of residues Glu554 and Tyr634, and to a less extent those of Tyr604 and Tyr605, as well as main and side chain of residue Cys627 (covalently bound to the inhibitor) are rearranged upon inhibitor binding.
The inventors obtained by X-Ray the crystal structure of the HECT domain of NEDD4 in complex with compound 12. […]
Take `CCOC(=O)/C=C/CNCCCCN1c2ccccc2CCc2ccc(Cl)cc21.O=C(O)/C=C\C(=O)O` [Compound 12, Ethyl (E)-4-[4-(3-chloro-10,11-dihydro-5H-dibenzo[b,f]azepin-5-yl)butylamino]but-2-enoate maleate]: the “binding mode in crystal structure of NEDD4 HECT complex” value was “covalent link to the protein”.

For a further test, the system named is LNCaP cells. Briefly: CellTiter-Glo Luminescent Cell Viability Assay, LNCaP. As to conditions: Homo sapiens, 48 hours incubation, mean of at least two determinations, read-out: LNCaP IC50 μM (antiproliferative activity). It is filed as cell-based. An excerpt:
CellTiter-Glo® Luminescent Cell Viability Assay (Promega, Catalog number: G7571) is a homogeneous method of determining the number of viable cells in culture based on quantitation of the present ATP, which indicates the presence of metabolically active cells. The homogeneous assay procedure involves addition of a single reagent (CellTiter-Glo® Reagent) directly to the cells, which leads to cell lysis and generation of a luminescent signal proportional to the amount of the ATP and the number of cells present in culture. The assay relies on the properties of a proprietary thermostable luciferase (Ultra-Glo® recombinant luciferase), which generates a luminescent signal.
DU145 cells (obtained from CLS Cell Lines Service GmbH item 300168) were grown in DMEM (Sigma Aldrich catalog number D6171-500 ml) supplemented with 10% Fetal Bovine Serum (Euroclone, catalog number. ECS0180L), 2 mM L-Glutamine (Euroclone catalog number LOBE17605F) and 100 U/ml penicillin-[…] streptomycin (EuroClone, ECB3001L). LNCaP cells (obtained from CLS Cell Lines Service GmbH item 300265) were grown in RPMI1640 (Lonza catalog number BE12-167F) supplemented with 10% Fetal Bovine Serum (Euroclone, catalog number. ECS0180L), 2 mM L-Glutamine (Euroclone catalog number LOBE17605F) and 100 U/ml penicillin-[…] streptomycin (EuroClone, ECB3001 L).
To determine the antiproliferative activity of the compounds, 3000 DU145 cells and 5000 LNCap cells were seeded in 96 multiwell plate (Sigma catalog number CLS9102) per well. 24 hours after seeding, the cells were incubated for 48 hours with different concentrations of the inhibitors (from 50 to 0 μM with a 3-fold dilution) dissolved in DMSO. After 48 hours, a volume of CellTiter-Glo® Reagent equal to the volume of cell culture medium was added. The content was mixed for 2 min to induce cell lysis. The luminescence was measured and recorded with Tecan Infinite 200 multimode plate reader after further 10 min at room temperature in order to obtain a stable luminescent signal.
The IC50 was calculated using GraphPad Software from the recorded luminescent signal.
Take `CCOC(=O)/C=C/CCNCCCN1c2ccccc2CCc2ccc(Cl)cc21` [Compound 5, Ethyl (E)-5-[3-(3-chloro-10,11-dihydro-5H-dibenzo[b,f]azepin-5-yl)propylamino]pent-2-enoate maleate]: the IC50 (as a rule, the midpoint of a concentration-inhibition curve) was found to be 10.9 µM. On the same count and under the same terms, as for `CCOC(=O)/C=C/CNCCCCN1c2cc(Cl)ccc2C(=O)N(C)c2ccccc21` [Compound 42, Ethyl (E)-4-{[4-(3-chloro-10-methyl-11-oxo-10,11-dihydro-5H-dibenzo[b,e][1,4]diazepin-5-yl)butyl]amino}but-2-enoate maleate], the figure is 6.49 µM; as for `CCOC(=O)/C=C/CNCCCCN1c2ccccc2C(=O)N(Cc2ccccc2)c2ccc(Cl)cc21` [Compound 45, Ethyl (E)-4-{[4-(10-benzyl-7-chloro-11-oxo-10,11-dihydro-5H-dibenzo[b,e][1,4]diazepin-5-yl)butyl]amino}but-2-enoate maleate], 5.69 µM; as for `CONC(=O)/C=C/CN(C)CCCCN1c2ccccc2CCc2ccc(Cl)cc21` [Compound 85, (E)-4-[4-(3-Chloro-10,11-dihydro-5H-dibenzo[b,f]azepin-5-yl)butyl-methyl-amino]-N-methoxy-but-2-enamide maleate], 16.3 µM. Still for that read-out and setting: under `CCOC(=O)/C=C/CNCCCCN1c2ccccc2CCc2ccc(Cl)cc21.O=C(O)/C=C\C(=O)O` [Compound 12, Ethyl (E)-4-[4-(3-chloro-10,11-dihydro-5H-dibenzo[b,f]azepin-5-yl)butylamino]but-2-enoate maleate] stands 6.67 µM.
